Data taken from publication PMC8272136, “Discovery of New Pyrazolopyridine, Furopyridine, and Pyridine Derivatives as CDK2 Inhibitors: Design, Synthesis, Docking Studies, and Anti-Proliferative Activity” (Molecules, 2021).
Several values for one entry are separate records, joined by “and”; a condition that tells them apart may be missing. Equal entries are not always repeated. Where two headings read alike, the source gives them in different places.

How the values were obtained:
[1] = system: HCT-116 (human colorectal carcinoma) cells; assay: MTT cytotoxicity assay, HCT-116; assay type: cell-based; conditions: 48 h, read-out: IC50 (µM) ± SD HCT-116
Description: (§1) In this study, ten compounds were examined in vitro for their activities against HCT-116, MCF-7, HepG2, and A549 human cancer cells using the MTT assay. The percentages of intact cells were calculated and compared to those of the control. The activities of these compounds against the four cell lines were compared to the activity of doxorubicin as well. […] In order to study the efficacy of the synthesized compounds, a comparison of the cytotoxic effect of each compound has been related to the cytotoxicity of the reference drug as follows.
(§2) Cell cultures of HCT-116 (human colorectal carcinoma), MCF-7 (human breast adenocarcinoma), HepG2 (human hepatocellular carcinoma), and A549 (human lung carcinoma) cell lines were purchased from the American Type Culture Collection (Rockville, MD, USA) and maintained in DMEM medium that was supplemented with 10% heat-inactivated FBS (fetal bovine serum), 100 U/mL penicillin, and […] streptomycin. The cells were grown at 37 °C in a humidified atmosphere of 5% CO2.
(§3) The anticancer activity against HCT-116, HepG2, A549, and MCF-7 human cancer cell lines was estimated using the 3-[4,5-dimethyl-2-thiazolyl)-2,5-diphenyl-2H-tetrazolium bromide (MTT) assay, which is based on the reduction of the tetrazolium salt by mitochondrial dehydrogenases in viable cells. Cells were dispensed in a 96-well sterile microplate (5 × 10^4 cells/well) and incubated at 37 °C with a series of different concentrations, in DMSO, of each tested compound or doxorubicin (positive control) for 48 h in a serum-free medium prior to the MTT assay. After incubation, media were carefully removed, and 40 µL of MTT (2.5 mg/mL) were added to each well and then incubated for an additional 4 h. The purple formazan dye crystals were solubilized by the addition of 200 µL of DMSO. The absorbance was measured at 570 nm using a Spectra Max Paradigm Multi-Mode microplate reader. The relative cell viability was expressed as the mean percentage of viable cells compared to the untreated control cells. All experiments were conducted in triplicate and repeated on three different days. All the values were represented as mean ± SD. IC50s were determined by probit analysis by SPSS Incprobit analysis (IBM Corp., Armonk, NY, USA).

[2] = target: T1, CDK2/cyclin A2 protein kinase (Homo sapiens, UniProt P24941); set-up: method as in PMID 33390512, PMID 22119131; conditions: external test set of QSAR model, reported compounds V, VI; read-out: Experimental Activity (IC50/μM); cited from earlier work
[3] = system: HepG2 (human hepatocellular carcinoma) cells; assay: MTT cytotoxicity assay, HepG2; assay type: cell-based; conditions: 48 h, read-out: IC50 (µM) ± SD HepG2
Description: as §1, §2, §3

[4] = system: MCF-7 (human breast adenocarcinoma) cells; assay: MTT cytotoxicity assay, MCF-7; assay type: cell-based; conditions: MCF7, 48 h, read-out: IC50 (µM) ± SD MCF-7
Description: as §1, §2, §3

[5] = target: T1, CDK2/cyclin A2 protein kinase; assay: CDK2/cyclin A2 kinase assay (Promega Kinase-Glo Plus luminescence kit); assay type: biochemical
From the text: It measures kinase activity by quantitating the amount of ATP remaining in solution following a kinase reaction. The luminescent signal from the assay is correlated with the amount of ATP present and is inversely correlated with the amount of kinase activity. […] The computer software Graphpad Prism was used for analyzing the luminescence data. The difference between luminescence intensities in the absence of CDK2/cyclin A2 protein kinase (Lut) and in the presence of kinase (Luc) was defined as 100% activity (Lut − Luc). Using luminescence signal (Lu) in the presence of the compound, the percentage of activity was calculated as: % activity = {(Lut − Lu)/(Lut − Luc)} × 100%, where Lu = the luminescence intensity in the presence of the compound.

[6] = system: A549 (human lung carcinoma) cells; assay: MTT cytotoxicity assay, A549; assay type: cell-based; conditions: 48 h, read-out: IC50 (µM) ± SD A549
Description: as §1, §2, §3

[7] = CDK2/cyclin A2, Kinase-Glo Plus luminescence, read-out: CDK2 IC50 (µM) ± SD

Row | IC50 [5, 7] | melting point [°C] | IC50 ([5]; external test set of QSAR model, compound 8, CDK2, read-out: Experimental Activity (IC50/μM)) [µM] | Compound | IC50 [1] [µM] | IC50 [2] [µM] | IC50 [3] [µM] | IC50 [4] [µM] | IC50 [6] [µM]
1 |  |  |  | COc1cccc2c1C(=O)c1c(O)c3c(c(O)c1C2=O)C[C@@](O)(C(=O)CO)C[C@@H]3O[C@H]1C[C@H](N)[C@H](O)[C@H](C)O1 [Doxorubicin, reference compound] | 40 ± 3.9 |  |  |  | 
2 |  |  |  | N#Cc1c(N)nc2[nH]c(=S)sc2c1-c1cccs1 [VI] |  | 0.139 |  |  | 
3 |  |  |  | Oc1nc(-c2cccs2)c2sc(=S)[nH]c2n1 [V] |  | 0.743 |  |  | 
4 | 0.57 ± 0.1 µM |  |  | N#Cc1c(-c2cccs2)cc(-c2ccc3ccccc3c2)[nH]c1=O [compound 1, 6-(naphthalen-2-yl)-2-oxo-4-(thiophen-2-yl)-1,2-dihydropyridine-3-carbonitrile] | 39.1 ± 4.2 |  | 27.9 ± 3.1 | 47 ± 4.5 | 60.6 ± 4.8
5 | 1.79 ± 0.1 µM | 165 to 166 |  | N#Cc1c(-c2cccs2)cc(-c2ccc3ccccc3c2)nc1OC(=O)CCl [compound 2, 3-Cyano-6-(naphthalen-2-yl)-4-(thiophen-2-yl)pyridin-2-yl 2-chloroacetate] | 43.5 ± 4.5 |  | 29.4 ± 3.5 | 21.3 ± 3.1 | 70.7 ± 4.1
6 | 1.01 ± 0.1 µM | 172 to 173 |  | N#Cc1c(-c2cccs2)cc(-c2ccc3ccccc3c2)nc1OC1=NC(=S)NC1 [compound 3, 6-(Naphthalen-2-yl)-4-(thiophen-2-yl)-2-((2-thioxo-2,5-dihydro-1H-imidazol-4-yl)oxy)nicotinonitrile] | 49 ± 5.1 |  | 44.8 ± 4.1 | 37.3 ± 4.1 | 57.4 ± 4.5
7 | 0.24 µM and 0.236 µM |  |  | N#Cc1c(-c2cccs2)cc(-c2ccc3ccccc3c2)nc1Cl [compound 4, 2-chloro-6-(naphthalen-2-yl)-4-(thiophen-2-yl)nicotinonitrile] | 45.9 ± 4.1 |  | 42.9 ± 3.9 | 46.2 ± 4.1 | 67.2 ± 5.1
8 | 3.53 ± 0.2 µM | 125 to 126 |  | COc1nc(-c2ccc3ccccc3c2)cc(-c2cccs2)c1C#N [compound 5, 2-Methoxy-6-(naphthalen-2-yl)-4-(thiophen-2-yl)nicotinonitrile] | 33.8 ± 3.5 |  | 27.2 ± 3.1 | 55.5 ± 4.5 | 47.6 ± 4.5
9 |  | 130 to 131 |  | N#Cc1c(-c2cccs2)cc(-c2ccc3ccccc3c2)nc1Nc1ccccc1 [compound 6, 6-(Naphthalen-2-yl)-2-(phenylamino)-4-(thiophen-2-yl)nicotinonitrile] |  |  |  |  | 
10 | 1.27 ± 0.1 µM |  |  | N#Cc1c(-c2cccs2)cc(-c2ccc3ccccc3c2)[nH]c1=S [compound 7] | 37.8 ± 3.9 |  | 22.7 ± 2.9 | 27.4 ± 2.4 | 36.8 ± 4.1
11 | 0.65 µM and 0.651 µM | 175 to 176 | 0.651 | Nc1n[nH]c2nc(-c3ccc4ccccc4c3)cc(-c3cccs3)c12 [compound 8, 6-(Naphthalen-2-yl)-4-(thiophen-2-yl)-1H-pyrazolo[3,4-b]pyridin-3-amine] | 33.7 ± 3.3 |  | 29.1 ± 3.5 | 19.3 ± 2.1 | 43.8 ± 4.1
12 | 0.5 µM and 0.504 µM | 160 to 161 |  | N#Cc1c(-c2cccs2)cc(-c2ccc3ccccc3c2)nc1SC(=O)CCl [compound 11, S-(3-Cyano-6-(naphthalen-2-yl)-4-(thiophen-2-yl)pyridin-2-yl)2-chloroethanethioate] | 31.7 ± 3.5 |  | 27.6 ± 3.3 | 46.4 ± 4.3 | 56.9 ± 4.6
13 | 4.45 ± 0.2 µM |  |  | CCOC(=O)COc1nc(-c2ccc3ccccc3c2)cc(-c2cccs2)c1C#N [compound 13] | 32.4 ± 3.1 |  | 30.2 ± 3.7 | 37.6 ± 3.5 | 45.9 ± 4.3
14 | 0.93 µM and 0.928 µM | 185 to 186 |  | CCOC(=O)c1oc2nc(-c3ccc4ccccc4c3)cc(-c3cccs3)c2c1N [compound 14, Ethyl-3-amino-6-(naphthalen-2-yl)-4-(thiophen-2-yl)furo[2,3-b]pyridine-2-carboxylate] | 31.3 ± 3.3 |  | 27.9 ± 3.5 | 26.1 ± 3.9 | 56.5 ± 4.8
15 |  | 197 to 198 |  | O=c1[nH]cnc2c1oc1nc(-c3ccc4ccccc4c3)cc(-c3cccs3)c12 [compound 15, 7-(Naphthalen-2-yl)-9-(thiophen-2-yl)pyrido[3′,2′:4,5]furo[3,2-d]pyrimidin-4(3H)-one] |  |  |  |  | 
